Experimental data from patent US8257725B2, “Delivery of highly lipophilic agents via medical devices” (Abbott Laboratories, priority 1997, dated 2012).

Legend:
[1] = Six-hour elution from PC1036-coated coupons in pH 7.4 phosphate buffered saline; assay type: physicochemical; conditions: for amount released from the coupon: after six hours, PBS pH 7.4, 37° C.; for amount remaining on the coupon: six-hour elution
Experimental: Prior to any experimentation, coated stainless steel coupons were prepared. These coupons were 316L electropolished stainless steel discs (10 mm diameter). This size was chosen because the surface area of one side of the coupon is similar to the surface area of a 15-mm open cell BiodivYsio stent. […]. The cleaning was a two-step process in which the coupons are sonicated for 3 minutes in dichloromethylene and 3 minutes in ethanol. The coupons were allowed to dry at room temperature. One side of the coupon was coated using a filtered 20-mg/mL solution of phosphoryl choline polymer PC1036 (product of Biocompatibles Ltd., Famham, Surrey, UK) in ethanol. Twenty μL PC solution was placed onto the coupon using a gas tight glass syringe, ensuring that the entire surface was coated but not spilling over the sides of the coupon. The coupons were initially air dried and then cured at 70° C. for 16 hours. They were then sent for gamma irradiation at <25 KGy. The resulting PC coating thickness was close to that of the stent and thick enough to accommodate the desired loaded drug dose, as graphically represented in FIG. 9A-B. FIG. 9A-B is a top and side view of a coated stainless steel coupon 30, having a PC-coating 20 on a electropolished stainless steel disc.
In these experiments, beneficial agents were loaded onto coupons and elution profiles examined. In general, the procedure is as follows. Twelve PC-coated coupons were loaded with each drug. The solutions of the drugs were usually 5.0 mg/mL in 100% ethanol and were filtered with a 0.45 μm filter prior to use.
The coupons were weighed before loading with the drug solution. To load 100 μg of drug, 20 μL of solution was placed (e.g., pipetted) on the center of the PC coated side of the coupon. The coupon was placed in a vial for 30 minutes with the lid closed to allow the drug to penetrate the coating. The lid was removed and the coupon was allowed to dry for an additional 90 minutes. To ensure that the coupon was completely dry, the coupon was weighed, and after 15 minutes the coupon was weighed a third time. When two weightings of the coupon were the same, the coupon was considered dry. The loaded, dry coupons were stored in a refrigerator protected from light.
Six coated coupons of each drug were used for the elution experiments. The coupons were individually placed, coating side up, in small metal cups to hold the coupon and to allow movement to a new vial at each time point. The coupons were usually placed in a vial containing 10 mL of pH 7.4 phosphate buffered saline. The vials were stored in an orbital shaker, with horizontal shaking of 100 rpm, at 37° C. for at least 30 minutes before insertion of a coupon to allow the solution to equilibrate at the desired temperature. After the desired time had lapsed, the coupon holder was lifted and allowed to drain. It was then placed into a pre-warmed vial corresponding to the next time point. This procedure continued until the predetermined time had elapsed. At that point, the coupons went through a drug extraction step as outlined earlier. The amount of drug in the elution samples was determined by HPLC.

[2] = Pharmacokinetics after single intravenous dose in cynomolgus monkey; conditions: single 2.5 mg/kg intravenous dose
[3] = Aqueous solubility, shake-flask method; conditions: amorphous DES drugs; dexamethasone crystalline
[4] = representative summary for suitable beneficial agents; cited from earlier work
[5] = Octanol/water partition coefficient, shake-flask method; assay type: physicochemical; conditions: for transfer coefficient (P divided by S), order: FIG. 21, S = equilibrium aqueous solubility (μg/ml); for lipophilicity (partition coefficient octanol/water): n-octanol/buffered water
Experimental: “Solubility” is based on a standard measure used in medicinal chemistry. The octanol-water partition coefficient (P) is the ratio of distribution of a compound in a mixture of 1-octanol and H2O. LogP is the base 10 logarithm of the partition coefficient.
In the measurement of the partition coefficient (octanol/water), preliminary studies were conducted to determine the optimum drug concentration for each test, and the appropriate time for establishing the partition equilibrium. All experiments were carried out by two different analysts and on multiple drug lots.
A transfer coefficient, τ, can be defined as P divided by S, where P equals the partition coefficient and S equals theequilibrium aqueous solubility, (μg/ml) as shown in FIG. 21. […] Where S equals the equilibrium aqueous solubility of the amorphous form of the drug were possible.

[6] = Stability of drug on PC-coated stents after ETO sterilization (HPLC); assay type: physicochemical
Experimental: In these experiments, beneficial agents were loaded onto stents and the stability of the two drugs was examined. In general, the procedure was as follows. Multiple PC-coated stents were loaded with each drug combination from solution. The solutions of the drugs were usually in the range of 2-20 mg/mL of zotarolimus and 10.0 mg/mL dexamethasone in 100% ethanol, with ˜10% PC1036 added to the solution to enhance film formation.
The stents were weighed before loading with the drug solution. To load approximately […] of each drug, a solution with equal amounts of zotarolimus and dexamethasone was sprayed onto the stent in a controlled fashion. The stent was allowed to dry before the stents were re-weighed to determine total drug load. The loaded, dry stents were stored in a refrigerator and were protected from light.
After drug loading, stents were crimped onto catheter balloons and packaged into medical product Tyvek pouches for ETO (ethylene oxide) sterilization. The ETO sterilization process is standard in the medical device industry to ensure product safety. […]
For each drug, multiple stents were used to evaluate the purity and stability of the drug loaded by the above procedure. […] The concentration and the presence of degradant-related impurities of the drug in the extraction solution were analyzed by HPLC.

[7] = Pig model, zotarolimus concentrations in tissues after ZoMaxx stents; assay type: in vivo; conditions: eluted from ZoMaxx stents, FIG. 25
[8] = alone, in the absence of zotarolimus

## OCCN(CCO)c1nc(N2CCCCC2)c2nc(N(CCO)CCO)nc(N3CCCCC3)c2n1 [Dipyridamole]
[1]; [8]
  amount released from the coupon: ~90%
[1]; in the presence of zotarolimus
  amount released from the coupon: about 52%

## 40-epi-N-[2′-pyridone]-rapamycin [Example 2-pyridone]
[2]; terminal elimination half-life
  t1/2: 2.8 h

## CO[C@H]1C[C@@H]2CC[C@@H](C)[C@@](O)(O2)C(=O)C(=O)N2CCCC[C@H]2C(=O)O[C@H]([C@H](C)C[C@@H]2CC[C@@H](O)[C@H](OC)C2)CC(=O)[C@H](C)/C=C(\C)[C@@H](O)[C@@H](OC)C(=O)[C@H](C)C[C@H](C)/C=C/C=C/C=C/1C [Rapamycin]
[3]
  Aqueous solubility, increasing order: paclitaxel, zotarolimus, rapamycin, and dexamethasone (crystalline)
[4]
  LogP Values: >4.5
[5]
  transfer coefficient (P divided by S), order: zotarolimus>>paclitaxel>>rapamycin>dexamethasone
[5]; shake-flask, FIG. 20
  lipophilicity (partition coefficient octanol/water): most lipophilic compounds in the group tested

## CC(=O)O[C@H]1C(=O)[C@@]2(C)[C@H]([C@H](OC(=O)c3ccccc3)[C@]3(O)C[C@H](OC(=O)[C@H](O)[C@@H](NC(=O)c4ccccc4)c4ccccc4)C(C)=C1C3(C)C)[C@]1(OC(C)=O)CO[C@@H]1C[C@@H]2O [Paclitaxel]
[3]
  Aqueous solubility, increasing order: paclitaxel, zotarolimus, rapamycin, and dexamethasone (crystalline)
[5]
  transfer coefficient (P divided by S), order: zotarolimus>>paclitaxel>>rapamycin>dexamethasone

## C[C@@H]1C[C@H]2[C@@H]3CCC4=CC(=O)C=C[C@]4(C)[C@@]3(F)[C@@H](O)C[C@]2(C)[C@@]1(O)C(=O)CO [Dexamethasone]
[3]
  Aqueous solubility, increasing order: paclitaxel, zotarolimus, rapamycin, and dexamethasone (crystalline)
[6]; dexamethasone-only coating
  degradation in the ETO sterilization environment: degraded
[6]; loaded in combination with zotarolimus, 1-to-1 ratio
  degradation in the ETO sterilization environment: did not degrade
[1]; coupon containing dexamethasone and zotarolimus
  amount remaining on the coupon: ~70%
[1]; no zotarolimus present
  amount remaining on the coupon: 25%
[4]
  LogP Values: ~1.9–2.2

## CCCCN(CCCC)C(=O)CN1C[C@H](c2ccc3c(c2)OCO3)[C@@H](C(=O)O)[C@@H]1c1ccc(OC)cc1 [ABT-627, atrasentan]
[1]; [8]
  amount released from the coupon: 50%
[1]; in the presence of zotarolimus
  amount released from the coupon: less than 10%

## CO[C@H]1C[C@@H]2CC[C@@H](C)[C@@](O)(O2)C(=O)C(=O)N2CCCC[C@H]2C(=O)O[C@H]([C@H](C)C[C@@H]2CC[C@H](n3ncnn3)[C@H](OC)C2)CC(=O)[C@H](C)/C=C(\C)[C@@H](O)[C@@H](OC)C(=O)[C@H](C)C[C@H](C)/C=C/C=C/C=C/1C (single isomer, unassigned; less polar) [Example 1, 42-Epi-(tetrazolyl)-rapamycin (less polar isomer)]
[2]
  terminal elimination half-life (t1/2) compared to rapamycin: substantially shorter

## 3 S,6R,7E,9R,10R,12R,14S,15E,17E,19E,21S, 23S,26R,27R,34aS)-9,10,12,13,14,21,22,23,24,25,26,27,32,33,34,34a-Hexadecahydro-9,27-dihydroxy-3-[(1R)-2-[(1S,3R,4R)-3-methoxy-4-tetrazol-1-yl)cyclohexyl]-1-methylethyl]-10,21-dimethoxy-6,8,12,14,20,26-hexamethyl-23,27-epoxy-3H-pyrido[2,1-c][1,4]oxaazacyclohentriacontine-1,5,11,28,29(4H,6H,31H)-pentone [Zotarolimus]
[4]
  LogP Values: >4.5
[7]; all periods out to 28 days
  concentration in arterial tissue adjacent to the stent placement: substantial concentrations
[7]; throughout 28 days
  concentration in distal, unstented and subjacent myocardium and unstented and distal coronary arteries: therapeutically significant concentrations
[5]
  transfer coefficient (P divided by S), order: zotarolimus>>paclitaxel>>rapamycin>dexamethasone
[5]; shake-flask, FIG. 20
  lipophilicity (partition coefficient octanol/water): most lipophilic of all DES drugs tested
  lipophilicity relative to rapamycin: more than two times as lipophilic as rapamycin
